# From paper PMC7770833, “Design, Synthesis, and Biological Evaluation of a Series of Oxazolone Carboxamides as a Novel Class of Acid Ceramidase Inhibitors” (Journal of Medicinal Chemistry, 2020)
# Biological target: T1, human N-acylethanolamine acid amidase (hNAAA) (Homo sapiens, UniProt Q02083)
# T1 construct: expressed in transfected cells; lysosome-enriched lysate
# T1 sequence (Q02083 29-359): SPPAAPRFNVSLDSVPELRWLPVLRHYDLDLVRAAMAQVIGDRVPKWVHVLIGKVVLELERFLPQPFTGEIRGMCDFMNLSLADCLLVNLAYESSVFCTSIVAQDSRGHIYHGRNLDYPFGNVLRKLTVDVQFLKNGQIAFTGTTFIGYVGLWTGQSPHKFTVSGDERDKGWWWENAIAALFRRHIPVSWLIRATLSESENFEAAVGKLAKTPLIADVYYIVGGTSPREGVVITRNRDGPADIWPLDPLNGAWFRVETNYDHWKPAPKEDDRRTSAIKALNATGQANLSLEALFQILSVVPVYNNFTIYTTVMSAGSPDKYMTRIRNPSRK
# Assay: Fluorogenic hNAAA assay
# Type: biochemical
# Details: at up to 125 μM
# Description: HEK-293 cells stably transfected with the hNAAA coding sequence cloned from a human spleen cDNA library (catalog no. 639124, Clontech, Mountain View, CA, USA) were used as the enzyme source. Cells were grown in DMEM containing 10% FBS, 1% glutamine, 1 mM sodium pyruvate, and 500 μg/mL G418. Cells were harvested and pellets were stored at −80 °C until lysosomal-enriched lysate preparation. Cells were suspended in 20 mM Tris HCl (pH 7.4) with 0.32 M sucrose, sonicated, and centrifuged at 800 × g for 30 min at 4 °C. Supernatants were then ultracentrifuged at 12 000 × g for 30 min at 4 °C. Pellets were re-suspended in PBS buffer (pH 7.4) and subjected to three freeze–thaw cycles at −80 °C. The suspension was finally ultracentrifuged at 105 000 × g for 1 h at 4 °C, supernatants were collected, protein concentration was measured, and samples aliquoted and stored at −80 °C until use.
# The assay was run in 96-well microplates (Black OptiPlate-96 F; PerkinElmer, Massachusetts, USA) in a total reaction volume of 200 μL. hNAAA protein preparation (4.0 μg) was pre-incubated for 30 min with various concentrations of test compounds or vehicle control (DMSO 5%) in 100 mM citrate/phosphate buffer (pH 4.5) containing 3.0 mM dithiothreitol (DTT), 0.1% NP40 0.1%, 0.05% bovine serum albumin, and 150 mM NaCl. […]
smiles,measurement,value
"CCCCCNC(=O)n1cc(-c2ccc(F)cc2C2CCN(C)CC2)oc1=O [Compound 32b, 5-[4-Fluoro-2-(1-methyl-4-piperidyl)phenyl]-2-oxo-N-pentyl-oxazole-3-carboxamide]",effect against hNAAA,no effect
